MIC and Mean survival data for 29 molecules are collected here from ChEMBL document CHEMBL1151029, “Structure-activity relationships of sulfur-containing triazole antifungals” (1995).

Converted amounts (≈) assume the structure as drawn.

Holding throughout (assay type): functional
Assay [1] deals with Aspergillus fumigatus. In words: In vitro antifungal activity against Aspergillus fumigatus MTU6001.
Assay [2] concerns Candida albicans. In words: In vitro antifungal activity against Candida albicans KB-8.
Assay [3] in a line: Mean survival days evaluated in vivo for prophylactic efficiency against murine systemic aspergillosis at a dose of 50 mg/kg.
Assay [4] is described as follows: Mean survival days evaluated in vivo for prophylactic efficiency against murine systemic candidiasis at a dose of 10 mg/kg.
Assay [5] has as its system Mus musculus. Description: Mean survival days evaluated in vivo for prophylactic efficiency against murine systemic aspergillosis at a dose of 100 mg/kg.

The term MIC denotes the lowest concentration found to suppress growth. High values mean a less susceptible organism, low ones a more susceptible organism. Take `C[C@H]([C@](O)(Cn1cncn1)c1ccc(F)cc1F)S(=O)(=O)CCCCCCO`: the values for the MIC in assay [1] and in assay [2] were 100 µg/mL (≈ 240 µM) and 0.39 µg/mL (≈ 0.934 µM), respectively. For the same molecule, the Mean survival in assay [3] turned out to be 3.1 days; in assay [4] it was 1.4 days.

With `CCCCCCCS[C@H](C)[C@](O)(Cn1cncn1)c1ccc(F)cc1F`, the MIC was at most 0.2 µg/mL in assay [1] and at most 0.013 µg/mL in assay [2]. The Mean survival in assay [3] turned out to be 2.2 days; in assay [4], 10 days.

As for `C[C@H]([C@](O)(Cn1cncn1)c1ccc(F)cc1F)S(=O)(=O)CCCCCCCO`, the MIC in assay [1] stood at 25 µg/mL (≈ 57.9 µM); in assay [2], 0.39 µg/mL (≈ 0.904 µM). For the same molecule, the Mean survival was determined as 1.2 days in assay [3] and 1 days in assay [4].

For `CCCCCCCCS(=O)(=O)[C@H](C)[C@](O)(Cn1cncn1)c1ccc(F)cc1F`, the minimum inhibitory concentration (MIC) was 3.13 µg/mL (≈ 7.29 µM) in assay [1] and at most 0.013 µg/mL in assay [2]. The Mean survival was determined as 1.6 days in assay [3] and 1.3 days in assay [4].

For `CCCCCCCCCCS[C@H](C)[C@](O)(Cn1cncn1)c1ccc(F)cc1F`, the MIC in assay [1] was 0.78 µg/mL (≈ 1.83 µM); in assay [2], at most 0.013 µg/mL. In addition, the Mean survival in assay [3] was found to be 8 days; in assay [4], 9.1 days.

For the molecule `CCCS(=O)(=O)[C@H](C)[C@](O)(Cn1cncn1)c1ccc(F)cc1F`, the MIC in assay [1] was determined as 6.25 µg/mL (≈ 17.4 µM); in assay [2], 0.2 µg/mL (≈ 0.556 µM). Also, the Mean survival in assay [3] is 10 days; in assay [4], 8.3 days.

As to `CCCS[C@H](C)[C@](O)(Cn1cncn1)c1ccc(F)cc1F`, the MIC in assay [1] came to 12.5 µg/mL (≈ 38.2 µM); in assay [2] it was 0.1 µg/mL (≈ 0.305 µM). Also, the Mean survival in assay [3] was determined as 1 days; in assay [4] it was 4.4 days.

In the case of `CCCCCCCCCS(=O)(=O)[C@H](C)[C@](O)(Cn1cncn1)c1ccc(F)cc1F`, the figures for the MIC in assay [1] and in assay [2] were 0.78 µg/mL (≈ 1.76 µM) and at most 0.013 µg/mL, respectively. Also, the Mean survival in assay [3] is 1 days; in assay [4], 0.6 days.

For the molecule `CCCCCCCCCS[C@H](C)[C@](O)(Cn1cncn1)c1ccc(F)cc1F`, the MIC in assay [1] was 3.13 µg/mL (≈ 7.61 µM); in assay [2], at most 0.013 µg/mL. Also, the Mean survival worked out at 1.8 days in assay [3] and 5 days in assay [4].

Consider `CCCCCCCCS[C@H](C)[C@](O)(Cn1cncn1)c1ccc(F)cc1F`, for which the minimum inhibitory concentration (MIC) was 0.39 µg/mL (≈ 0.981 µM) in assay [1] and at most 0.013 µg/mL in assay [2]. Also, the values for the Mean survival in assay [3] and in assay [4] were 7.2 days and 8.6 days, respectively.

Regarding `C[C@@H](SCCCCCCO)[C@](O)(Cn1cncn1)c1ccc(F)cc1F`, the MIC is 0.78 µg/mL (≈ 2.02 µM) in assay [1] and at most 0.013 µg/mL in assay [2]. Moreover, the Mean survival in assay [3] and in assay [4] was 2.8 days throughout.

In the case of `C[C@@H](SCCCCCO)[C@](O)(Cn1cncn1)c1ccc(F)cc1F`, the MIC in assay [1] worked out at 0.78 µg/mL (≈ 2.1 µM); in assay [2], 0.025 µg/mL (≈ 0.0673 µM). The Mean survival in assay [3] stood at 10 days; in assay [4], 9.8 days.

As for `CCCCCCS[C@H](C)[C@](O)(Cn1cncn1)c1ccc(F)cc1F`, the MIC in assay [1] was 0.39 µg/mL (≈ 1.06 µM); in assay [2] it was at most 0.013 µg/mL. Also, the values for the Mean survival in assay [3] and in assay [4] were 6.8 days and 9.2 days, respectively.

With `C[C@H]([C@](O)(Cn1cncn1)c1ccc(F)cc1F)S(=O)(=O)CCCCCCCCO`, the values for the MIC in assay [1] and in assay [2] were 6.25 µg/mL (≈ 14 µM) and 0.1 µg/mL (≈ 0.224 µM), respectively. Moreover, the Mean survival in assay [3] is 3 days; in assay [4], 0.5 days.

As for `CCS[C@H](C)[C@](O)(Cn1cncn1)c1ccc(F)cc1F`, the results for the MIC in assay [1] and in assay [2] were 1.56 µg/mL (≈ 4.98 µM) and 0.025 µg/mL (≈ 0.0798 µM), respectively. For the same molecule, the Mean survival turned out to be 9.8 days in assay [3] and 10 days in assay [4].

Consider `C[C@@H](SCCCCO)[C@](O)(Cn1cncn1)c1ccc(F)cc1F`, for which the MIC worked out at 6.25 µg/mL (≈ 17.5 µM) in assay [1] and 0.2 µg/mL (≈ 0.56 µM) in assay [2]. The values for the Mean survival in assay [3] and in assay [4] were 3.2 days and 2.5 days, respectively.

Regarding `C[C@@H](SCCCCCCCO)[C@](O)(Cn1cncn1)c1ccc(F)cc1F`, the values for the MIC in assay [1] and in assay [2] were 0.78 µg/mL (≈ 1.95 µM) and at most 0.013 µg/mL, respectively. The results for the Mean survival in assay [3] and in assay [4] were 9.7 days and 10 days, respectively.

As for `CCCCCS(=O)(=O)[C@H](C)[C@](O)(Cn1cncn1)c1ccc(F)cc1F`, the minimal inhibitory concentration (MIC) in assay [1] came out at 25 µg/mL (≈ 64.5 µM); in assay [2] it was 0.2 µg/mL (≈ 0.516 µM). Moreover, the Mean survival in assay [3] stood at 3.6 days; in assay [4], 0.4 days.

As to `CCCCCCCCCCCS[C@H](C)[C@](O)(Cn1cncn1)c1ccc(F)cc1F`, the values for the minimum inhibitory concentration (MIC) in assay [1] and in assay [2] were 25 µg/mL (≈ 56.9 µM) and at most 0.013 µg/mL, respectively. Moreover, the Mean survival in assay [3] worked out at 1.6 days; in assay [4], 5.8 days.

For `CCCCCCCS(=O)(=O)[C@H](C)[C@](O)(Cn1cncn1)c1ccc(F)cc1F`, the MIC was 6.25 µg/mL (≈ 15 µM) in assay [1] and at most 0.013 µg/mL in assay [2]. For the same molecule, the Mean survival in assay [3] was determined as 1.1 days; in assay [4], 0.9 days.

As to `CCCCCCCCCCCS(=O)(=O)[C@H](C)[C@](O)(Cn1cncn1)c1ccc(F)cc1F`, the MIC is 3.13 µg/mL (≈ 6.64 µM) in assay [1] and at most 0.013 µg/mL in assay [2]. The values for the Mean survival in assay [3] and in assay [4] were 1.6 days and 1.1 days, respectively.

For `CCCCCS[C@H](C)[C@](O)(Cn1cncn1)c1ccc(F)cc1F`, the minimum inhibitory concentration (MIC) in assay [1] was 0.78 µg/mL (≈ 2.19 µM); in assay [2], at most 0.013 µg/mL. The Mean survival in assay [3] was 2.5 days; in assay [4] it was 9.9 days.

For `CCCCCCS(=O)(=O)[C@H](C)[C@](O)(Cn1cncn1)c1ccc(F)cc1F`, the MIC in assay [1] worked out at 12.5 µg/mL (≈ 31.1 µM); in assay [2] it was 0.1 µg/mL (≈ 0.249 µM). Also, the Mean survival was 1.6 days in assay [3] and 2.6 days in assay [4].

`CCCCS[C@H](C)[C@](O)(Cn1cncn1)c1ccc(F)cc1F`: the figures for the MIC in assay [1] and in assay [2] were 0.78 µg/mL (≈ 2.28 µM) and at most 0.013 µg/mL, respectively. Moreover, the Mean survival in assay [3] was 2.5 days; in assay [4], 9.9 days.

As to `C[C@@H](SCCCCCCCCO)[C@](O)(Cn1cncn1)c1ccc(F)cc1F`, the MIC is at most 0.2 µg/mL in assay [1] and at most 0.013 µg/mL in assay [2]. The Mean survival turned out to be 3.5 days in assay [3] and 4.3 days in assay [4].

For `CCCCS(=O)(=O)[C@H](C)[C@](O)(Cn1cncn1)c1ccc(F)cc1F`, the MIC in assay [1] is 12.5 µg/mL (≈ 33.5 µM); in assay [2] it was 0.2 µg/mL (≈ 0.536 µM). The Mean survival in assay [3] turned out to be 4.1 days; in assay [4], 7.6 days.

Take `CCCCCCCCCCS(=O)(=O)[C@H](C)[C@](O)(Cn1cncn1)c1ccc(F)cc1F`: the minimal inhibitory concentration (MIC) in assay [1] is below 0.2 µg/mL; in assay [2], at most 0.013 µg/mL. Moreover, the Mean survival in assay [3] amounted to 1.5 days; in assay [4], 3.9 days.

On to `OC(Cn1cncn1)(Cn1cncn1)c1ccc(F)cc1F` [FLUCONAZOLE], for which the values for the MIC in assay [1] and in assay [2] were 400 µg/mL (≈ 1310 µM) and 0.78 µg/mL (≈ 2.55 µM), respectively. Besides, the Mean survival was determined as 2.8 days in assay [5] and 10 days in assay [4].

For `C[C@H]([C@](O)(Cn1cncn1)c1ccc(F)cc1F)S(C)(=O)=O` [GENACONAZOLE], the MIC in assay [1] came to 12.5 µg/mL (≈ 37.7 µM); in assay [2], 0.2 µg/mL (≈ 0.604 µM). Besides, the Mean survival in assay [3] and in assay [4] was 10 days throughout.
